# According to patent publication US20190307821A1, “METHODS AND COMPOSITIONS FOR CANCER THERAPY” (priority 2016, published 2019):
# How the values were obtained:
# ID8-R cells = experiment: Growth in the presence of DOX (trypan blue exclusion test); type: cell-based, murine; details: DOX 3 μM, after a one-week period
# Experimental: (§1) FIG. 9. Susceptibility of parental and resistant ID8 and CAOV2 tumor cells to PTX, CBDCA and DOX. (a) Characterization of side population (SP) in the parental (P) and drug-resistant (R) ID8 (left panel) and CAOV2 (right panel) tumor cells by Hoechst 33342 dye staining. One representative experiment of two independent experiments performed in duplicates is shown. Growth of the parental and drug-resistant tumor variants of ID8 (b) and CAOV2 (c) cells in the presence of PTX (59 nM) and CBDCA (2.6 μM) (left panel) or DOX (3 μM) (right panel) was determined by a trypan blue exclusion test for cell viability. Bars represent the mean±SD of two independent experiments using triplicate samples.
# [1] = system: parental and drug-resistant ID8 cells; type: cell-based, murine; details: 72-h cell viability assay, ID8-R versus parental cells
# [2] = system: OVV-EGFP in ID8-R tumor cells; type: cell-based, vaccinia virus
# ID8-R tumor cells = type: cell-based, murine; details: 24 h cultures, OVV MOI of 1 or DOX 1 μM alone
# CAOV2-R cells = experiment: Growth in the presence of DOX (trypan blue exclusion test); type: cell-based, human; details: DOX 3 μM, after a one-week period
# Experimental: as §1
# [3] = system: parental and drug-resistant CAOV2 cells; type: cell-based, human; details: 72-h cell viability assay, CAOV2-R versus parental
# [4] = system: OVV-EGFP in CAOV2-R tumor cells; type: cell-based, vaccinia virus
structure (smiles),measurement,setting,value
"COc1cccc2c1C(=O)c1c(O)c3c(c(O)c1C2=O)C[C@@](O)(C(=O)CO)C[C@@H]3O[C@H]1C[C@H](N)[C@H](O)[C@H](C)O1 [DOX, doxorubicin]",dead cells,ID8-R cells,over 90%
same,IC50 values higher compared to the parental cells,[1],approximately 10 fold
same,decrease in viral titers,[2],10 fold
same,cells with apoptosis or necrosis,ID8-R tumor cells,~20%
same,dead cells,CAOV2-R cells,over 90%
same,differences in the IC50 values between the resistant and parental cells,[3],3 fold
same,decrease in viral titers,[4],3 fold
